Our source for the IC50 values is US9540391B2, “Isomannide derivatives as inhibitors of soluble epoxide hydrolase” (SANOFI, priority 2013, dated 2017).

In the experiment the target is T1, recombinant sEH (Homo sapiens, UniProt P34913).
T1 construct: made in house; host or cells: Sf9 insect cells
T1 sequence (P34913 1-555): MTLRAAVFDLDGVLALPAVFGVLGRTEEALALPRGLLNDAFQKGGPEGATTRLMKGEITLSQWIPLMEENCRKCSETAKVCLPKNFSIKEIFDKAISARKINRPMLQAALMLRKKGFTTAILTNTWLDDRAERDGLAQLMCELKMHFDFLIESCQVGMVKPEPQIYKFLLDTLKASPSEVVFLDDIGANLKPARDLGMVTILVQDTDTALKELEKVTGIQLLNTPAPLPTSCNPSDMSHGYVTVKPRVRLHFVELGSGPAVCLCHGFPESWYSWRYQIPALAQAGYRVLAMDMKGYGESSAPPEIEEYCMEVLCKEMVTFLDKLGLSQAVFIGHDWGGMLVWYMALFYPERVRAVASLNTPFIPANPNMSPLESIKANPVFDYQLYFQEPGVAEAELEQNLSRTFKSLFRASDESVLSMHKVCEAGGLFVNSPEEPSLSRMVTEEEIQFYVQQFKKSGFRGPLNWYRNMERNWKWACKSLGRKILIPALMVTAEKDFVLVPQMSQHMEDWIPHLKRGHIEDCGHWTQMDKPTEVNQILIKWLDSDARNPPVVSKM
The experiment is described as follows: biochemical screening assay for inhibition of soluble epoxide hydrolase (fluorometric, Phome substrate). The essentials: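 Human sEH from Sf9 cells (2 nM final) was pre-incubated 15 min at 30 °C with compound (0.0001–10 μM), then reacted 60 min at 30 °C with 5 μM Phome in 25 mM Hepes/0.01% albumin. Fluorescence of released 6-methoxy-2-naphthaldehyde was read before substrate and at end; IC50 from % inhibition.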

For orientation: IC50 means the midpoint of a concentration-inhibition curve.

As for `Cc1ncccc1O[C@H]1CO[C@H]2[C@@H]1OC[C@@H]2NC(=O)N[C@H]1C[C@H]2C[C@@H]([C@@H]1C)C2(C)C` [Example 186, 1-[(3S,3aR,6S,6aS)-6-(2-Methyl-pyridin-3-yloxy)-hexahydro-furo[3,2-b]furan-3-yl]-3-((1S,2S,3S,5R)-2,6,6-trimethyl-bicyclo[3.1.1]hept-3-yl)-urea], the IC50 was 2 nM.

For `Cc1ncccc1O[C@H]1CO[C@H]2[C@@H]1OC[C@@H]2NC(=O)NC(C)c1ccc(S(C)(=O)=O)cc1` (stereo partly drawn) [Example 187, 1-[1-(4-Methanesulfonyl-phenyl)-ethyl]-3-[(3S,3aR,6S,6aS)-6-(2-methyl-pyridin-3-yloxy)-hexahydro-furo[3,2-b]furan-3-yl]-urea], the IC50 came out at 44 nM.

Consider `Cc1ncccc1O[C@H]1CO[C@H]2[C@@H]1OC[C@@H]2NC(=O)NCc1ccccc1OC(F)F` [Example 188, 1-(2-Difluoromethoxy-benzyl)-3-[(3S,3aR,6S,6aS)-6-(2-methyl-pyridin-3-yloxy)-hexahydro-furo[3,2-b]furan-3-yl]-urea], for which the IC50 was 1 nM.

With `Cc1ncccc1O[C@H]1CO[C@H]2[C@@H]1OC[C@@H]2NC(=O)NCc1ccc(OC(F)F)cc1` [Example 189, 1-(4-Difluoromethoxy-benzyl)-3-[(3S,3aR,6S,6aS)-6-(2-methyl-pyridin-3-yloxy)-hexahydro-furo[3,2-b]furan-3-yl]-urea], the IC50 amounted to 23 nM.

With `Cc1cnc(CNC(=O)N[C@H]2CO[C@H]3[C@@H]2OC[C@@H]3Oc2cccnc2C)cn1` [Example 190, 1-(5-Methyl-pyrazin-2-ylmethyl)-3-[(3S,3aR,6S,6aS)-6-(2-methyl-pyridin-3-yloxy)-hexahydro-furo[3,2-b]furan-3-yl]-urea], the IC50 was determined as 475 nM.

On to `Cc1ncccc1O[C@H]1CO[C@H]2[C@@H]1OC[C@@H]2NC(=O)NCC1COC(C)(C)O1` (stereo partly drawn) [Example 191, 1-(2,2-Dimethyl-[1,3]dioxolan-4-ylmethyl)-3-[(3S,3aR,6S,6aS)-6-(2-methyl-pyridin-3-yloxy)-hexahydro-furo[3,2-b]furan-3-yl]-urea], for which the IC50 came out at 489 nM.

In the case of `Cc1ncccc1O[C@H]1CO[C@H]2[C@@H]1OC[C@@H]2NC(=O)NCc1cnn(C)c1` [Example 192, 1-(1-Methyl-1H-pyrazol-4-ylmethyl)-3-[(3S,3aR,6S,6aS)-6-(2-methyl-pyridin-3-yloxy)-hexahydro-furo[3,2-b]furan-3-yl]-urea], the IC50 worked out at 1730 nM.

As for `Cc1ncccc1OC1COC2C(NC(=O)NC34CC5CC(CC(O)(C5)C3)C4)COC12` [Example 193, 1-((1R,3S,5R,7S)-3-Hydroxy-adamantan-1-yl)-3-[(3S,3aR,6S,6aS)-6-(2-methyl-pyridin-3-yloxy)-hexahydro-furo[3,2-b]furan-3-yl]-urea], the IC50 was 51 nM.

As to `Cc1ncccc1O[C@H]1CO[C@H]2[C@@H]1OC[C@@H]2NC(=O)NCC1COCCO1` (stereo partly drawn) [Example 194, 1-[1,4]Dioxan-2-ylmethyl-3-[(3S,3aR,6S,6aS)-6-(2-methyl-pyridin-3-yloxy)-hexahydro-furo[3,2-b]furan-3-yl]-urea], the IC50 was found to be 1470 nM.

As for `Cc1ncccc1OC1COC2C(NC(=O)NC3C4(C)CCC(C4)C3(C)C)COC12` [Example 195, 1-[(2R,3aS,5S,6S)-6-(2-Methyl-pyridin-3-yloxy)-hexahydro-furo[3,2-b]furan-3-yl]-3-((1S,4R)-1,3,3-tri-methyl-bicyclo[2.2.1]hept-2-yl)-urea], the IC50 turned out to be 56 nM.

Consider `Cc1ncccc1O[C@H]1CO[C@H]2[C@@H]1OC[C@@H]2NC(=O)NCC1COc2ccccc2O1` (stereo partly drawn) [Example 196, 1-(2,3-Dihydro-benzo[1,4]dioxin-2-ylmethyl)-3-[(3S,3aR,6S,6aS)-6-(2-methyl-pyridin-3-yloxy)-hexahydro-furo[3,2-b]furan-3-yl]-urea], for which the IC50 was found to be 26 nM.

As for `Cc1ncccc1O[C@H]1CO[C@H]2[C@@H]1OC[C@@H]2NC(=O)NC(C)(C)CN1CCOCC1` [Example 197, 1-(1,1-Dimethyl-2-morpholin-4-yl-ethyl)-3-[(3S,3aR,6S,6aS)-6-(2-methyl-pyridin-3-yloxy)-hexahydro-furo[3,2-b]furan-3-yl]-urea], the IC50 came to 1140 nM.

Consider `Cc1ncccc1O[C@H]1CO[C@H]2[C@@H]1OC[C@@H]2NC(=O)NCc1cn(C)cn1` [Example 198, 1-(1-Methyl-1H-imidazol-4-ylmethyl)-3-[(3S,3aR,6S,6aS)-6-(2-methyl-pyridin-3-yloxy)-hexahydro-furo[3,2-b]furan-3-yl]-urea], for which the IC50 came out at 997 nM.

As for `Cc1csc(CNC(=O)N[C@H]2CO[C@H]3[C@@H]2OC[C@@H]3Oc2cccnc2C)n1` [Example 199, 1-[(3S,3aR,6S,6aS)-6-(2-Methyl-pyridin-3-yloxy)-hexahydro-furo[3,2-b]furan-3-yl]-3-(4-methyl-thiazol-2-ylmethyl)-urea], the IC50 amounted to 2070 nM.

As to `Cc1ncccc1O[C@H]1CO[C@H]2[C@@H]1OC[C@@H]2NC(=O)NCc1cccc2c1OCCO2` [Example 200, 1-(2,3-Dihydro-benzo[1,4]dioxin-5-ylmethyl)-3-[(3S,3aR,6S,6aS)-6-(2-methyl-pyridin-3-yloxy)-hexahydro-furo[3,2-b]furan-3-yl]-urea], the IC50 was 88 nM.

Consider `Cc1ncccc1O[C@H]1CO[C@H]2[C@@H]1OC[C@@H]2NC(=O)NCC1CCC(=O)N1` (stereo partly drawn) [Example 201, 1-[(3S,3aR,6S,6aS)-6-(2-Methyl-pyridin-3-yloxy)-hexahydro-furo[3,2-b]furan-3-yl]-3-(5-oxo-pyrrolidin-2-ylmethyl)-urea], for which the IC50 was 5790 nM.

As to `COc1cccc(CNC(=O)N[C@H]2CO[C@H]3[C@@H]2OC[C@@H]3Oc2cccnc2C)n1` [Example 202, 1-(6-Methoxy-pyridin-2-ylmethyl)-3-[(3S,3aR,6S,6aS)-6-(2-methyl-pyridin-3-yloxy)-hexahydro-furo[3,2-b]furan-3-yl]-urea], the IC50 is 345 nM.

With `COc1cc(CNC(=O)N[C@H]2CO[C@H]3[C@@H]2OC[C@@H]3Oc2cccnc2C)ccn1` [Example 203, 1-(2-Methoxy-pyridin-4-ylmethyl)-3-[(3S,3aR,6S,6aS)-6-(2-methyl-pyridin-3-yloxy)-hexahydro-furo[3,2-b]furan-3-yl]-urea], the IC50 turned out to be 28 nM.

In the case of `Cc1ncccc1O[C@H]1CO[C@H]2[C@@H]1OC[C@@H]2NC(=O)NC(C)(C)c1ccc(F)cc1` [Example 204, 1-[1-(4-Fluoro-phenyl)-1-methyl-ethyl]-3-[(3S,3aR,6S,6aS)-6-(2-methyl-pyridin-3-yloxy)-hexahydro-furo[3,2-b]furan-3-yl]-urea], the IC50 worked out at 734 nM.

`Cc1cccnc1CCNC(=O)N[C@H]1CO[C@H]2[C@@H]1OC[C@@H]2Oc1cccnc1C` [Example 205, 1-[2-(3-Methyl-pyridin-2-yl)-ethyl]-3-[(3S,3aR,6S,6aS)-6-(2-methyl-pyridin-3-yloxy)-hexahydro-furo[3,2-b]furan-3-yl]-urea]: the IC50 turned out to be 528 nM.

For `Cc1ncccc1OC1COC2C(NC(=O)NCCc3ccccc3OC(F)(F)F)COC12` [Example 206, 1-[(3S,3aR,6S,6aS)-6-(2-Methyl-pyridin-3-yloxy)-hexahydro-furo[3,2-b]furan-3-yl]-3-[2-(2-trifluoro-methoxy-phenyl)-ethyl]-urea], the IC50 came out at 2 nM.

For `Cc1ncccc1O[C@H]1CO[C@H]2[C@@H]1OC[C@@H]2NC(=O)NC1CCOc2ccccc21` (stereo partly drawn) [Example 207, 1-Chroman-4-yl-3-[(3S,3aR,6S,6aS)-6-(2-methyl-pyridin-3-yloxy)-hexa-hydro-furo[3,2-b]furan-3-yl]-urea], the IC50 stood at 3 nM.

Consider `Cc1ncccc1O[C@H]1CO[C@H]2[C@@H]1OC[C@@H]2NC(=O)NCc1ccc(Cl)s1` [Example 208, 1-(5-Chloro-thiophen-2-ylmethyl)-3-[(3S,3aR,6S,6aS)-6-(2-methyl-pyridin-3-yloxy)-hexahydro-furo[3,2-b]furan-3-yl]-urea], for which the IC50 was 15 nM.

Consider `Cc1ncccc1O[C@H]1CO[C@H]2[C@@H]1OC[C@@H]2NC(=O)NCC1(C)CCCO1` (stereo partly drawn) [Example 209, 1-[(3S,3aR,6S,6aS)-6-(2-Methyl-pyridin-3-yloxy)-hexahydro-furo[3,2-b]furan-3-yl]-3-(2-methyl-tetrahydro-furan-2-ylmethyl)-urea], for which the IC50 turned out to be 819 nM.

`COCC1(NC(=O)N[C@H]2CO[C@H]3[C@@H]2OC[C@@H]3Oc2cccnc2C)CCCC1` [Example 210, 1-(1-Methoxymethyl-cyclopentyl)-3-[(3S,3aR,6S,6aS)-6-(2-methyl-pyridin-3-yloxy)-hexahydro-furo[3,2-b]furan-3-yl]-urea]: the IC50 was 144 nM.

With `COCC(NC(=O)N[C@H]1CO[C@H]2[C@@H]1OC[C@@H]2Oc1cccnc1C)c1ccnn1C` (stereo partly drawn) [Example 211, 1-[2-Methoxy-1-(2-methyl-2H-pyrazol-3-yl)-ethyl]-3-[(3S,3aR,6S,6aS)-6-(2-methyl-pyridin-3-yloxy)-hexahydro-furo[3,2-b]furan-3-yl]-urea], the IC50 is 1080 nM.

With `Cc1ncccc1O[C@H]1CO[C@H]2[C@@H]1OC[C@@H]2NC(=O)NC1CCN(C(=O)C(C)C)CC1` [Example 212, 1-(1-Isobutyryl-piperidin-4-yl)-3-[(3S,3aR,6S,6aS)-6-(2-methyl-pyridin-3-yloxy)-hexahydro-furo[3,2-b]furan-3-yl]-urea], the IC50 is 37 nM.
